The source of these data is ChEMBL document CHEMBL1201862, “PubChem BioAssay data set” (2004).

Common to all, as to assay: growth of human tumour cells (NCI), 48 h
Experiment [1] relates to UACC-62.
Experiment [2] deals with OVCAR-8.
The test system of experiment [3] is U-251.
The subject of experiment [4] is SK-MEL-5.
Experiment [5] concerns SNB-75.
For experiment [6], the system named is A549.
The test system of experiment [7] is NCI-H226.
Experiment [8] has as its system HCC 2998.
The test system of experiment [9] is M14.
Experiment [10] deals with OVCAR-3.
The test system of experiment [11] is SK-MEL-28.
The test system of experiment [12] is HL-60.
Experiment [13] relates to KM12.
In experiment [14] the test system is K562.
For experiment [15], the system named is HCT-15.
In experiment [16] the test system is MOLT-4.
For experiment [17], the system named is LOX IMVI.
Experiment [18] relates to SNB-19.

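Method: 48-hour compound exposure of cells in 96-well plates, five concentrations, linear interpolation of endpoints. GI50 = concentration required for 50% inhibition of growth.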 Activity calls are given as the source filed them. Cut-off read from the data, not from the text of the source: active = GI50 up to about 1.1 µM and inactive = higher.

Turning to `CCc1cccc(C)c1NC(C)=O`, the GI50 in experiment [1], in [2], in [3], in [4], in experiment [5] and in experiment [6] was > 100 µM (inactive) each time. In addition, the GI50 in experiment [7], in experiment [8], in experiment [9], in experiment [10], in [11] and in experiment [12] was > 100 µM (inactive) in each case. Besides, the GI50 in experiment [13] is > 100 µM (inactive); in [14], > 100 µM (inactive); in experiment [15] it was > 100 µM; in experiment [16], > 100 µM (inactive).

Take `O=C1Nc2c(ccc(Cl)c2I)C1=O`: the GI50 in [1] is 17.6 µM (inactive); in experiment [2], 28.2 µM (inactive); in experiment [17], 19.1 µM (inactive); in experiment [3], 25.5 µM (inactive); in experiment [4] it was 15.7 µM (inactive); in experiment [6], 34.9 µM (inactive). Further, the GI50 in experiment [7] is 22.5 µM (inactive); in [8] it was 19.6 µM (inactive); in [9], 15.7 µM (inactive); in [10] it was 19.9 µM (inactive); in [11], 18.4 µM (inactive); in [12], 18.5 µM (inactive). The GI50 is 24.4 µM (inactive) in experiment [13]; 23.8 µM (inactive) in [14]; 18.9 µM in experiment [15]; 18.7 µM (inactive) in [16]; 42.3 µM (inactive) in experiment [18].

Turning to `O=C1C=C(c2[nH]c3ccccc3c2C2=CC(=O)c3ccccc3C2=O)C(=O)c2ccccc21`, the GI50 in [1] was 24.9 µM (inactive); in experiment [2] it was 43.8 µM (inactive); in [17], 22.1 µM (inactive); in experiment [3], 32.8 µM (inactive); in [4] it was 31.7 µM (inactive); in experiment [5] it was 26 µM (inactive). The GI50 was 65.3 µM (inactive) in experiment [6]; 61.7 µM (inactive) in experiment [7]; 68.7 µM (inactive) in experiment [9]; 21.6 µM (inactive) in experiment [10]; 57 µM (inactive) in experiment [11]; 21.8 µM (inactive) in experiment [12]. Besides, the GI50 is 36.1 µM (inactive) in experiment [13], 22.3 µM (inactive) in experiment [14], 15 µM (inactive) in experiment [16] and 70.1 µM (inactive) in [18].

On to `O=C(Nc1cc(Cl)ccc1Cl)c1cc2cccc(Cl)c2oc1=O`, for which the GI50 was > 100 µM (inactive) in experiment [1]; 47.1 µM (inactive) in experiment [2]; > 100 µM (inactive) in experiment [17]; > 100 µM (inactive) in [3]; > 100 µM (inactive) in experiment [4]; 37.1 µM (inactive) in experiment [5]. Further, the GI50 in [6], in [9], in [10], in [11], in experiment [12] and in experiment [13] was > 100 µM (inactive) each time. In addition, the GI50 in experiment [14] was > 100 µM (inactive); in experiment [15], > 100 µM; in experiment [16], > 100 µM (inactive).

Regarding `O=C(O)C1=Cc2cccc3cccc(c23)C1=O`, the GI50 in experiment [1], in experiment [2], in experiment [17], in experiment [3], in experiment [4] and in experiment [5] was > 100 µM (inactive) in each case. Moreover, the GI50 in experiment [6], in experiment [7], in [8], in experiment [9], in [10] and in experiment [11] was > 100 µM (inactive) throughout. The GI50 in [12] was > 100 µM (inactive); in experiment [13], > 100 µM (inactive); in experiment [14], > 100 µM (inactive); in experiment [15] it was > 100 µM; in experiment [16], > 100 µM (inactive); in [18] it was > 100 µM (inactive).

In the case of `C/C(=N\NS(=O)(=O)c1ccc(C)cc1)c1cc2ccccc2n1C`, the GI50 in experiment [1] is 76.2 µM (inactive); in [2] it was > 100 µM (inactive); in experiment [17], > 100 µM (inactive); in experiment [3], 63.8 µM (inactive); in [4] it was > 100 µM (inactive); in [5] it was 59.2 µM (inactive). Also, the GI50 in experiment [6], in experiment [8], in [9], in [12], in [13] and in experiment [14] was > 100 µM (inactive) throughout. For the same molecule, the GI50 in experiment [15] is > 100 µM; in [16], > 100 µM (inactive); in experiment [18] it was 69.8 µM (inactive).

Regarding `c1ccc2c(c1)CCc1cc3cc4c(nc3nc1-2)-c1ccccc1CC4`, the GI50 in experiment [1], in [2], in experiment [17], in experiment [3], in experiment [5] and in [6] was > 100 µM (inactive) each time. The GI50 in experiment [7], in experiment [8], in [9], in [10], in experiment [11] and in experiment [12] was > 100 µM (inactive) throughout. In addition, the GI50 is > 100 µM (inactive) in experiment [13]; > 100 µM (inactive) in experiment [14]; > 100 µM in [15]; > 100 µM (inactive) in experiment [16]; > 100 µM (inactive) in experiment [18].

Take `COC(=O)c1nc(-c2ccc(Cl)c(Cl)c2)nc2ccccc12`: the GI50 in experiment [1] is > 27.7 µM (inactive); in experiment [2] it was 14.5 µM (inactive); in experiment [17], > 100 µM (inactive); in experiment [3], 21.2 µM (inactive); in experiment [4], > 35.8 µM (inactive); in experiment [5], 5.04 µM (inactive). For the same molecule, the GI50 is 34.9 µM (inactive) in [6]; 13.7 µM (inactive) in experiment [7]; > 100 µM (inactive) in experiment [8]; > 24.1 µM (inactive) in [9]; 14.5 µM (inactive) in experiment [10]; > 59.3 µM (inactive) in [11]. In addition, the GI50 in [12] was > 100 µM (inactive); in experiment [13], > 85.7 µM (inactive); in experiment [14] it was > 100 µM (inactive); in [15], > 100 µM; in experiment [16], > 100 µM (inactive); in experiment [18], 5.89 µM (inactive).

As for `NC(=S)N1N=C2CCCCCC[C@@H]2[C@H]1c1ccccc1`, the GI50 in experiment [1] was 44.1 µM (inactive); in experiment [2] it was 44.5 µM (inactive); in experiment [17], 32.8 µM (inactive); in [3] it was 46 µM (inactive); in [4], 22.4 µM (inactive); in experiment [5] it was 75.2 µM (inactive). Further, the GI50 in experiment [6] was 24.4 µM (inactive); in experiment [7], 18.6 µM (inactive); in experiment [8], 79.4 µM (inactive); in experiment [9] it was 74.5 µM (inactive); in experiment [10] it was 39.3 µM (inactive); in experiment [11], 89.7 µM (inactive). For the same molecule, the GI50 is 19.2 µM (inactive) in experiment [12]; 35.2 µM (inactive) in experiment [13]; 32.8 µM (inactive) in experiment [14]; 28.4 µM in experiment [15]; 31.8 µM (inactive) in experiment [16]; 63.1 µM (inactive) in [18].
